Results from ChEMBL document CHEMBL1201862, “PubChem BioAssay data set” (2004).
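A five-concentration, 48-hour dose response in 96-well plates underlies each endpoint, interpolated linearly between surrounding concentrations. GI50 = concentration required for 50% inhibition of growth.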 Active and inactive are the calls of the source. No stated cut-off is given here; in the data, active = GI50 up to about 1.1 µM and inactive = higher.

Legend:
Experiment in all cases: inhibition of tumour cell growth, NCI panel, 48 h
[1] = test system: BT-549
[2] = test system: CAKI-1
[3] = test system: HCT-116
[4] = test system: MCF7
[5] = test system: MDA-MB-231
[6] = test system: MDA-MB-435
[7] = test system: MDA-N
[8] = test system: MOLT-4
[9] = test system: NCI-H23
[10] = test system: RPMI-8226
[11] = test system: RXF 393
[12] = test system: SF-268
[13] = test system: SF-295
[14] = test system: SN12C
[15] = test system: SNB-75
[16] = test system: SW-620
[17] = test system: U-251
[18] = test system: UACC-257
[19] = test system: UO-31
[20] = test system: HOP-92

Measured: GI50

O=C(O)c1ccc2[nH]c(=O)oc2c1
inactive: [1] > 100 µM | [2] > 100 µM | [3] > 100 µM | [4] > 100 µM | [5] > 100 µM | [6] > 100 µM | [7] > 100 µM | [8] > 100 µM | [9] > 100 µM | [10] > 100 µM | [11] > 100 µM | [12] > 100 µM | [13] > 100 µM | [14] > 100 µM | [15] > 100 µM | [16] > 100 µM | [17] > 100 µM | [18] > 100 µM

CSc1nc(=S)[nH]c2[nH]nc(C)c12
inactive: [1] > 100 µM | [2] > 100 µM | [3] > 100 µM | [4] > 100 µM | [5] > 100 µM | [6] > 100 µM | [7] > 100 µM | [8] > 100 µM | [9] > 100 µM | [10] > 100 µM | [11] > 100 µM | [12] > 100 µM | [14] > 100 µM | [15] > 100 µM | [16] > 100 µM | [17] > 100 µM | [18] > 100 µM | [19] > 100 µM

Cc1ccsc1/C(S)=N\c1ccc(Cl)c(/C=N/OC(C)(C)C)c1
inactive: [1] 22.9 µM | [2] 29 µM | [3] 16.4 µM | [20] 18 µM | [4] 35.2 µM | [5] 21.2 µM | [6] 53.3 µM | [7] 43.1 µM | [8] 12.3 µM | [9] 24.7 µM | [10] 26.4 µM | [11] 14.8 µM | [12] > 100 µM | [13] 28.1 µM | [14] 27 µM | [16] 35.3 µM | [17] 24.3 µM | [18] 17.2 µM | [19] 20.6 µM

Nc1ccn(C2OC(C(OC3OC(CO)C(O)C(N)C3O)C(O)C(O)C(O)C(O)CO)C(N)C(O)C2O)c(=O)n1 (stereo unspecified)
inactive: [1] 31.3 µM | [2] 61 µM | [3] 46.3 µM | [20] 3.78 µM | [4] > 100 µM | [5] 6.44 µM | [6] > 100 µM | [7] > 100 µM | [8] > 100 µM | [9] > 100 µM | [10] > 100 µM | [12] 11 µM | [13] 13.1 µM | [14] > 100 µM | [16] > 100 µM | [17] > 100 µM | [18] > 100 µM | [19] 52 µM

O=C1CCCSCCCC(=O)CCCSCCC1
inactive: [1] > 100 µM | [3] > 100 µM | [20] > 100 µM | [4] > 100 µM | [5] > 100 µM | [6] > 100 µM | [7] > 100 µM | [8] > 100 µM | [9] > 100 µM | [12] > 100 µM | [13] > 100 µM | [14] > 100 µM | [15] 93.3 µM | [16] > 100 µM | [17] > 100 µM | [18] > 100 µM | [19] > 100 µM

COc1cccc(/N=N/C(=N/NC(=O)c2ccc(C)cc2)c2ccc(N(CCC#N)CCC#N)cc2OC)c1
inactive: [1] > 100 µM | [2] > 100 µM | [3] > 100 µM | [20] > 100 µM | [4] > 100 µM | [5] > 100 µM | [6] > 100 µM | [7] > 100 µM | [8] > 100 µM | [9] > 100 µM | [10] > 100 µM | [11] > 100 µM | [12] > 100 µM | [13] 59 µM | [14] > 100 µM | [16] > 100 µM | [17] > 100 µM | [18] 7.14 µM | [19] > 100 µM

COC(=O)C1=NN2c3ccccc3CN([C@@H](C)c3ccccc3)C(=O)[C@@H]2C1
inactive: [1] 24.6 µM | [2] 23.2 µM | [3] 32.4 µM | [20] 34.4 µM | [4] 34.8 µM | [5] 57 µM | [6] 16.6 µM | [7] 28.3 µM | [8] 15 µM | [9] 32.9 µM | [10] 24.5 µM | [11] 46.6 µM | [12] 28.7 µM | [13] 40.2 µM | [14] 56.1 µM | [16] 87.3 µM | [17] 40.7 µM | [18] 30.5 µM | [19] 17.5 µM

Oc1cccc(-c2nc3cc(F)ccc3s2)c1
inactive: [1] 16.9 µM | [2] 15.1 µM | [3] 21.3 µM | [4] 1.6 µM | [5] 15.9 µM | [6] 23.9 µM | [7] 19.4 µM | [8] 20.5 µM | [9] 16.6 µM | [10] 20.3 µM | [11] 25.9 µM | [12] 23.9 µM | [13] 20.6 µM | [14] 23.4 µM | [15] 11.1 µM | [16] 22 µM | [17] 24.5 µM | [18] 13.9 µM | [19] 14.5 µM

N#CS/C(Cl)=C(/C(Cl)=C(Cl)Cl)[N+](=O)[O-]
inactive: [1] 36.8 µM | [2] 35.4 µM | [3] 25.4 µM | [4] 29.9 µM | [5] 52.5 µM | [7] 34.6 µM | [8] 36.3 µM | [9] 33.3 µM | [11] 47.3 µM | [12] 38 µM | [13] 53.2 µM | [14] 36.9 µM | [15] 32.3 µM | [16] 29.7 µM | [17] 35.8 µM | [18] 36.6 µM | [19] 24.5 µM

CCOC(=O)N1CCN(c2c(C)nc(C)nc2O)CC1
inactive: [1] > 100 µM | [2] > 100 µM | [3] > 100 µM | [20] > 100 µM | [4] > 100 µM | [5] > 100 µM | [6] > 100 µM | [7] > 100 µM | [8] > 100 µM | [9] > 100 µM | [10] > 100 µM | [11] > 100 µM | [12] > 100 µM | [13] > 100 µM | [14] > 100 µM | [16] > 100 µM | [17] > 100 µM | [18] > 100 µM | [19] > 100 µM

COc1ccccc1-c1nc[nH]c1-c1ccccc1OC
inactive: [1] 33.4 µM | [2] 31 µM | [3] 31.8 µM | [20] 17.3 µM | [4] 24.8 µM | [5] 21.7 µM | [7] 16.1 µM | [8] 29.2 µM | [9] 27.4 µM | [10] 29.3 µM | [11] 24.5 µM | [12] 14.4 µM | [13] 26 µM | [14] 38 µM | [15] 14.6 µM | [16] 40.3 µM | [18] 25.3 µM | [19] 45.1 µM
